The numbers were not newly measured in patent US20040043030A1, “Polymeric delivery systems” (Immunomedics, Inc., priority 2001, published 2004), which cites them from elsewhere.

Data set [1] has as its system tumor cells. The note with it: relative to doxorubicin.
Data set [2] concerns the target T1, human beta-D-glucuronidase (Homo sapiens, UniProt P08236).
T1 sequence (P08236 23-651): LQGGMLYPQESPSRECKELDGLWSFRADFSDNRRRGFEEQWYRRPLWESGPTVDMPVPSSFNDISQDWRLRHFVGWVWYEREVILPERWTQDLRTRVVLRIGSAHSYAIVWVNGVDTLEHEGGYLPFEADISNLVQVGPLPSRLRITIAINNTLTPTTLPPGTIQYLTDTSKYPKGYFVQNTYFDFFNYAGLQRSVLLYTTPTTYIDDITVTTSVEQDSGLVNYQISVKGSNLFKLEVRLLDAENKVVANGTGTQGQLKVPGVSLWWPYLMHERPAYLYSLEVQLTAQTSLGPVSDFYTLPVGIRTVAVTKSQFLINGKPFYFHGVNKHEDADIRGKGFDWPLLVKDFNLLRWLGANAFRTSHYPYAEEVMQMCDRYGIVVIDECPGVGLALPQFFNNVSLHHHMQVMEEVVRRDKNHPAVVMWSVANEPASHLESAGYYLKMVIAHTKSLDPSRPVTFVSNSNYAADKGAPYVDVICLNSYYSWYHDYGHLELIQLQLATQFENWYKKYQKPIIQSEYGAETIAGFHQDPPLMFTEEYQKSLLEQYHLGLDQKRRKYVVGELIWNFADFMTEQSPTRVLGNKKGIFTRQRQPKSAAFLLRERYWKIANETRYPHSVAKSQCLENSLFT
The settings on record: Arcamone, Cancer Res., 45:5995, 1985.

Each structure is given as a SMILES string.

As to `COc1cccc2c1C(=O)c1c(O)c3c(c(O)c1C2=O)C[C@@](O)(C(=O)CO)C[C@@H]3O[C@H]1C[C@H](N2C=CCC2)[C@H](O)[C@H](C)O1` [Example 2-PDOX, 2-pyrrolinodoxorubicin], the “more toxic to tumor cells than doxorubicin itself” value in data set [1] is reported as 100-1000.

In the case of `COc1cccc2c1C(=O)c1c(O)c3c(c(O)c1C2=O)C[C@@](O)(C(=O)CO)C[C@@H]3O[C@H]1C[C@H](N)[C@@H](O)[C@H](C)O1` [epirubicin], in data set [2], the “substrate for human beta-D-glucuronidase” value is “substrate”.
